From patent US8648066B2 (Exelixis, Inc., priority 2009, dated 2014) come the findings set out here.

Where only a bound is given, the exact number is not on record here.

The assay deals with mTOR/GbL/Raptor (mTORC1) (Homo sapiens, UniProt P42345). Kind of assay: mTOR/GbL/Raptor (mTORC1) ELISA assay. Format: biochemical. The note with it: phosphorylation of 4E-BP1; 0.2 nM mTORC1, 10 μM ATP; read-out: IC50 in this assay (mTORC1 ELISA). The method in brief: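 Human mTORC1 (0.2 nM) phosphorylated 50 nM His-tagged 4E-BP1 with 10 µM ATP in HEPES pH 7.2 containing 10 mM MnCl2, 120 min at ambient temperature. Substrate was captured on Ni-chelate plates; phospho-4E-BP1 was detected by primary antibody and HRP secondary with luminescence.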
For `Cc1nc2ncc(-c3ccc4c(c3)CN(c3ncnc5c3CCC(C)(C)C5)CCO4)cc2[nH]1` [Example 484, 4-(7,7-dimethyl-5,6,7,8-tetrahydroquinazolin-4-yl)-7-(2-methyl-1H-imidazo[4,5-b]pyridin-6-yl)-2,3,4,5-tetrahydro-1,4-benzoxazepine], the IC50 is ≤ 0.01 µM.
For the compound `Cc1nc2ncc(-c3ccc4c(c3)CN(c3ncnc5c3CCCC5(C)C)CCO4)cc2[nH]1` [Example 485, 4-(8,8-dimethyl-5,6,7,8-tetrahydroquinazolin-4-yl)-7-(2-methyl-1H-imidazo[4,5-b]pyridin-6-yl)-2,3,4,5-tetrahydro-1,4-benzoxazepine], the IC50 lay within 0.01 to 0.05 µM.
For `Cc1nc2ncc(-c3ccc4c(c3)CN(c3ncnc5c3C[C@H](C)[C@@H](C)C5)CCO4)cc2[nH]1` [Example 486, 4-[(6S,7S)-6,7-dimethyl-5,6,7,8-tetrahydroquinazolin-4-yl]-7-(2-methyl-1H-imidazo[4,5-b]pyridin-6-yl)-2,3,4,5-tetrahydro-1,4-benzoxazepine] the value was ≤ 0.01 µM; for `CC[C@H]1CCc2c(nc(C)nc2N2CCOc3ccc(-c4cnc5nc(C)[nH]c5c4)cc3C2)C1` [Example 487, 4-[(7S)-7-ethyl-2-methyl-5,6,7,8-tetrahydroquinazolin-4-yl]-7-(2-methyl-1H-imidazo[4,5-b]pyridin-6-yl)-2,3,4,5-tetrahydro-1,4-benzoxazepine], 0.01 to 0.05 µM.
The figure for `CC[C@H]1CCc2c(ncnc2N2CCOc3ccc(-c4cnc5nc(C)[nH]c5c4)cc3C2)C1` [Example 488, 4-[(7S)-7-ethyl-5,6,7,8-tetrahydroquinazolin-4-yl]-7-(2-methyl-1H-imidazo[4,5-b]pyridin-6-yl)-2,3,4,5-tetrahydro-1,4-benzoxazepine] is ≤ 0.01 µM; for `C=C[C@H]1CCCc2c(ncnc2N2CCOc3ccc(-c4cnc5nc(C)[nH]c5c4)cc3C2)C1` [Example 489, 4-[(8S)-8-ethenyl-6,7,8,9-tetrahydro-5H-cyclohept[d]pyrimidin-4-yl]-7-(2-methyl-1H-imidazo[4,5-b]pyridin-6-yl)-2,3,4,5-tetrahydro-1,4-benzoxazepine] it is ≤ 0.01 µM; for `CC[C@H]1CCCc2c(ncnc2N2CCOc3ccc(-c4cnc5nc(C)[nH]c5c4)cc3C2)C1` [Example 490] it is ≤ 0.01 µM.
For `Cc1nc(C)c(C(C)C)c(N2CCOc3ccc(-c4cnc5nc(C)[nH]c5c4)cc3C2)n1` [Example 491, 4-[2,6-dimethyl-5-(1-methylethyl)pyrimidin-4-yl]-7-(2-methyl-1H-imidazo[4,5-b]pyridin-6-yl)-2,3,4,5-tetrahydro-1,4-benzoxazepine], the IC50 is ≤ 0.01 µM.
Turning to `Cc1nc(C)c(CC2CC2)c(N2CCOc3ccc(-c4cnc5nc(C)[nH]c5c4)cc3C2)n1` [Example 492, 4-[5-(cyclopropylmethyl)-2,6-dimethylpyrimidin-4-yl]-7-(2-methyl-1H-imidazo[4,5-b]pyridin-6-yl)-2,3,4,5-tetrahydro-1,4-benzoxazepine], the IC50 is 0.01 to 0.05 µM.
Consider `Cc1nc2ncc(-c3ccc4c(c3)CN(c3ncnc(C)c3CC3CC3)CCO4)cc2[nH]1` [Example 493, 4-[5-(cyclopropylmethyl)-6-methylpyrimidin-4-yl]-7-(2-methyl-1H-imidazo[4,5-b]pyridin-6-yl)-2,3,4,5-tetrahydro-1,4-benzoxazepine], for which the IC50 lay within 0.01 to 0.05 µM.
Turning to `COCCOCc1nc2c(c(N3CCOc4ccc(-c5ccc6nc(C)[nH]c6c5)cc4C3)n1)CC(C)(C)CC2` [Example 494, 4-[6,6-dimethyl-2-({[2-(methyloxy)ethyl]oxy}methyl)-5,6,7,8-tetrahydroquinazolin-4-yl]-7-(2-methyl-1H-benzimidazol-6-yl)-2,3,4,5-tetrahydro-1,4-benzoxazepine], the IC50 lay within 0.01 to 0.05 µM.
